Experimental data: patent US7999011B2, “Method for cardioprotection and neuroprotection by intravenous administration of halogenated volatile anesthetics” (Baxter International Inc., priority 2002, dated 2011)

Experiments:
[1] = Arterial blood gas analysis; assay type: in vivo, rabbit; conditions: for pH: arterial blood
Protocol: Male New Zealand white rabbits weighing between 2.5 and 3.0 kg were anesthetized with intravenous sodium pentobarbital (30 mg/kg). Additional doses of pentobarbital were titrated as required to assure that pedal and palpebral reflexes were absent throughout the experiment. A tracheotomy was performed through a ventral midline incision, and the trachea was cannulated. The rabbits were ventilated with positive pressure using an air-oxygen mixture (FiO2=0.33). […] Body temperature was maintained with a heating blanket. Heparin-filled catheters were inserted into the right carotid artery and the left jugular vein for measurement of arterial blood pressure and fluid or drug administration, respectively. Maintenance fluids consisted of 0.9% saline (15 ml/kg/h) that were continued for the duration of the experiment.
(§1) Baseline measurements of systemic hemodynamics, arterial blood gas tensions, and blood concentrations of anesthetic agent were performed 30 min after instrumentation was completed. Rabbits received 0.9% saline, drug lipid vehicle (10 ml/h), or intravenous volatile anesthetic (10 ml/h) for 30 min. Infusions were discontinued 30 min prior to coronary occlusion (memory period). Blood concentrations of anesthetic agents were performed at baseline, at the end of anesthetic infusion, and at the end of the memory period just before coronary occlusion). HVA concentrations in blood were determined by gas chromatographic (GC) analysis. All rabbits underwent a 30 min LAD occlusion followed by 3 h reperfusion.
(§2) Statistical analysis of data within and between groups was performed with analysis of variance (ANOVA) for repeated measures followed by Student-Newman-Keuls test. Changes between groups were considered statistically significant when the p value was less than 0.05. All data are expressed as mean±SEM.

[2] = literature values determined in rabbits; cited from earlier work
[3] = Blood concentration of anesthetics by GC and conversion to MAC-equivalents; assay type: in vivo, rabbit
Protocol: as §1
Blood concentrations as measured by GC were converted to their MAC-equivalent values by calculations described below. Initially “n”, or the number of moles of HVA in 1 L of alveolar gas during exposure to 1.0 MAC of the HVA was calculated. The ideal gas law n=PV/RT is used to calculate the number of moles of HVA present at 1 MAC in the alveolar gas where: V=1 L, T=273+37=310° (K); and R=0.0821 (universal gas constant). P or pressure was determined taking into account the vapor pressure of water at 37° C. which is 47.1 torr, and the volume percent of the HVA. Volume percentages of HVAs (MAC values) were obtained from literature values determined in rabbits (Scheller et al. Can. J. Anaesth. 1988, 35: 133-136; Drummond, J C Anesthesiology 1985; 62: 336-8, and Doorley et al. Anesthesiology 1988; 69, 89-91), and are presented in Table 8.
The number of moles of the HVA in 1 L at 37° C. at 1 MAC in rabbits was then used to determine the concentration of the HVA present in blood by using known blood/gas partition values (also known as λ). Blood gas partition values for the HVAs used in the study are show in Table 8. The value for “x” (or the equivalent blood concentration of the HVA at 1 MAC at 37° C. in rabbit) is then determined by the equation: x=λn
To express a measured blood concentration of an HVA as a MAC-equivalent value, the measured blood concentration is divided by x. The MAC equivalent values shown in Table 8 were calculated according to the above from the blood concentrations observed (see Table 7).

End-tidal gas analysis = assay type: in vivo, rabbit; conditions: for EtHalogenated: end-tidal
Protocol: as §1, §2

[4] = blood/gas; cited from earlier work
[5] = Literature MAC values in rabbits and 1 MAC-equivalent blood concentration; assay type: in vivo; conditions: 37° C., rabbit; x=λn
Protocol: “Minimum alveolar concentration (MAC)”, as is known in the art, is the alveolar concentration of an anesthetic, administered by inhalation at a pressure of 1 atmosphere, that prevents movement in 50% of patients in response to a painful stimuli. The MAC is age-dependent; it may be affected by a patient's medical condition; and it may also be affected by other pharmaceutical agents that are administered to the patient. In the context of intravenous administration of HVAs, the term “MAC” or “MAC-equivalent” is intended to mean an intravenous dose which produces the same blood plasma concentration of an anesthetic agent as that attained by inhalational administration of a gaseous concentration of anesthetic which prevents such movement in 50% of patients.
Blood concentrations as measured by GC were converted to their MAC-equivalent values by calculations described below. Initially “n”, or the number of moles of HVA in 1 L of alveolar gas during exposure to 1.0 MAC of the HVA was calculated.
The number of moles of the HVA in 1 L at 37° C. at 1 MAC in rabbits was then used to determine the concentration of the HVA present in blood by using known blood/gas partition values (also known as λ). […] The value for “x” (or the equivalent blood concentration of the HVA at 1 MAC at 37° C. in rabbit) is then determined by the equation: x=λn

[6] = Infusion (end of 30 min, 10 ml/h i.v. infusion)
[7] = Memory (30 min after infusion, just before coronary occlusion)
[8] = measured blood concentration divided by x

## FC(F)OC(Cl)C(F)(F)F (centres unmarked) [ISO, isoflurane]
[1]; Baseline
  PaCO2: 34 ± 2 mmHg
  PaO2: 136 ± 17 mmHg
  pH: 7.43 ± 0.02
[1]; Infusion
  PaCO2: 34 ± 2 mmHg
  PaO2: 124 ± 11 mmHg
  pH: 7.40 ± 0.03
[1]; Ischemia 30 min
  PaCO2: 33 ± 2 mmHg
  PaO2: 166 ± 24 mmHg
  pH: 7.36 ± 0.02
[1]; Memory
  PaCO2: 36 ± 2 mmHg
  PaO2: 146 ± 15 mmHg
  pH: 7.36 ± 0.02
[1]; Reperfusion 1 h
  PaCO2: 31 ± 2 mmHg
  PaO2: 167 ± 12 mmHg
  pH: 7.39 ± 0.02
[1]; Reperfusion 2 h
  PaCO2: 32 ± 2 mmHg
  PaO2: 169 ± 12 mmHg
  pH: 7.39 ± 0.02
[1]; Reperfusion 3 h
  PaCO2: 33 ± 2 mmHg
  PaO2: 160 ± 13 mmHg
  pH: 7.39 ± 0.01
[2]
  Average MAC: 2.05 % v/v
[3]; Baseline
  Blood Concentration: 0 µM
[3]; [6]
  Blood Concentration: 180 ± 60 µM
[3]; [7]
  Blood Concentration: 40 ± 20 µM
[3]; i.v. emulsion
  Observed Blood Concentration following 30 min, 10 mL/h Infusion: 0.18 mM
[3]; [8]
  Observed Blood Concentration following 30 min, 10 mL/h Infusion: 0.17 MAC-Equivalents
End-tidal gas analysis; Baseline
  EtCO2: 34 ± 1 mmHg
  EtHalogenated: 0%
End-tidal gas analysis; Infusion
  EtCO2: 34 ± 1 mmHg
  EtHalogenated: 0.31 ± 0.02%
End-tidal gas analysis; Ischemia 30 min
  EtCO2: 30 ± 2 mmHg
  EtHalogenated: 0.00 ± 0.00%
End-tidal gas analysis; Memory
  EtCO2: 33 ± 2 mmHg
  EtHalogenated: 0.02 ± 0.01%
End-tidal gas analysis; Reperfusion 1 h
  EtCO2: 27 ± 2 mmHg
  EtHalogenated: 0.00 ± 0.00%
End-tidal gas analysis; Reperfusion 2 h
  EtCO2: 28 ± 2 mmHg
  EtHalogenated: 0.00 ± 0.00%
End-tidal gas analysis; Reperfusion 3 h
  EtCO2: 30 ± 2 mmHg
  EtHalogenated: 0.00 ± 0.00%
[4]
  Partition Coefficient ("λ"): 1.4
[5]
  1 MAC-Equivalent Blood Concentration at 1 MAC ("x"): 1.06 mM

## FC(F)OC(F)(F)C(F)Cl (centres unmarked) [ENF, enflurane]
[1]; Baseline
  PaCO2: 28 ± 2 mmHg
  PaO2: 151 ± 16 mmHg
  pH: 7.47 ± 0.02
[1]; Infusion
  PaCO2: 31 ± 2 mmHg
  PaO2: 130 ± 14 mmHg
  pH: 7.41 ± 0.02
[1]; Ischemia 30 min
  PaCO2: 32 ± 2 mmHg
  PaO2: 157 ± 22 mmHg
  pH: 7.37 ± 0.02
[1]; Memory
  PaCO2: 30 ± 2 mmHg
  PaO2: 149 ± 16 mmHg
  pH: 7.40 ± 0.02
[1]; Reperfusion 1 h
  PaCO2: 28 ± 2 mmHg
  PaO2: 143 ± 11 mmHg
  pH: 7.38 ± 0.02
[1]; Reperfusion 2 h
  PaCO2: 27 ± 2 mmHg
  PaO2: 135 ± 10 mmHg
  pH: 7.40 ± 0.03
[1]; Reperfusion 3 h
  PaCO2: 32 ± 3 mmHg
  PaO2: 131 ± 12 mmHg
  pH: 7.42 ± 0.02
[2]
  Average MAC: 2.86 % v/v
[3]; Baseline
  Blood Concentration: 0 µM
[3]; [6]
  Blood Concentration: 310 ± 30 µM
[3]; [7]
  Blood Concentration: 60 ± 10 µM
[3]; i.v. emulsion
  Observed Blood Concentration following 30 min, 10 mL/h Infusion: 0.31 mM
[3]; [8]
  Observed Blood Concentration following 30 min, 10 mL/h Infusion: 0.15 MAC-Equivalents
End-tidal gas analysis; Baseline
  EtCO2: 36 ± 2 mmHg
  EtHalogenated: 0%
End-tidal gas analysis; Infusion
  EtCO2: 37 ± 2 mmHg
  EtHalogenated: 0.27 ± 0.02%
End-tidal gas analysis; Ischemia 30 min
  EtCO2: 33 ± 3 mmHg
  EtHalogenated: 0.00 ± 0.00%
End-tidal gas analysis; Memory
  EtCO2: 34 ± 2 mmHg
  EtHalogenated: 0.02 ± 0.01%
End-tidal gas analysis; Reperfusion 1 h
  EtCO2: 33 ± 3 mmHg
  EtHalogenated: 0.00 ± 0.00%
End-tidal gas analysis; Reperfusion 2 h
  EtCO2: 33 ± 3 mmHg
  EtHalogenated: 0.00 ± 0.00%
End-tidal gas analysis; Reperfusion 3 h
  EtCO2: 35 ± 3 mmHg
  EtHalogenated: 0.00 ± 0.00%
[4]
  Partition Coefficient ("λ"): 1.9
[5]
  1 MAC-Equivalent Blood Concentration at 1 MAC ("x"): 1.995 mM
